US20050233467A1, “Visible wavelength fluorescent calcium indicators that are (i) leakage resistant and (ii) operate near membranes” (priority 2004, published 2005)

Test system: myocytes of mouse small mesenteric arteries
Test: Localization of dye in walls of mouse small mesenteric arteries (imaging)
Type: cell-based
Details: mouse small mesenteric artery wall, activated cells
From the text: The plane is tangential to the artery, very close to the coverslip. The spindle-shaped cells run horizontally, the artery lumen runs vertically. […] The FLUO-MOMO images are quite bright because the cells have been activated and [Ca^2+] cyt has risen. […] (Photo courtesy of Dr. Blaustein of The University of Maryland Medical School.)

Q: With `CCN(CC)c1ccc(/C=C/C=C/C=C/c2cc[n+](CCC[N+](CC)(CC)CC)cc2)cc1.[Br-].[Br-]` [FM4-64] as the compound, how does the “localization of dye in the cell” value read?
A: localizes to the plasma membrane
